These results are taken from patent US20050250713A1, “11,12-Cyclic thiocarbamate macrolide antibacterial agents” (priority 2004, published 2005).

Holding throughout (experiment): MIC, microdilution broth method (NCCLS)
Type in all cases: cell-based
(In broth dilution the organism is exposed to a series of concentrations in liquid medium.)

One assay concerns E. faecalis ATCC29212. Particulars: Enterococcus faecalis, cation adjusted Mueller-Hinton broth, 16-20 hours, read-out: MIC Values, B: E. faecalis ATCC29212. As for the experimental part:
(§1) Minimum inhibitory concentration (MIC) has been an indicator of in vitro antibacterial activity widely used in the art. The in vitro antimicrobial activity of the compounds was determined by the microdilution broth method following the test method from the National Committee for Clinical Laboratory Standards (NCCLS). This method is described in the NCCLS Document M7-A4, Vol. 17, No.2, “Methods for Dilution Antimicrobial Susceptibility Test for Bacteria that Grow Aerobically—Fourth Edition”, which is incorporated herein by reference. In this method two-fold serial dilutions of drug in cation adjusted Mueller-Hinton broth are added to wells in microdilution trays. The test organisms are prepared by adjusting the turbidity of actively growing broth cultures so that the final concentration of test organism after it is added to the wells is approximately 5×10^4 CFU/well. Following inoculation of the microdilution trays, the trays are incubated at 35 °C for 16-20 hours and then read. […] The amount of growth in the wells containing the test compound is compared with the amount of growth in the growth-control wells (no test compound) used in each tray. As set forth in Table 1, compounds of the present invention were tested against a variety of Gram positive and Gram negative pathogenic bacteria resulting in a range of activities depending on the organism tested.

In the next assay the test system is S. aureus ATCC29213. Particulars: Staphylococcus aureus, cation adjusted Mueller-Hinton broth, 16-20 hours. As for the experimental part: as §1
A further assay deals with H. influenzae ATCC49247. The settings on record: Haemophilus influenzae, cation adjusted Mueller-Hinton broth, 16-20 hours, read-out: MIC Values, D: H. influenzae ATCC49247. As for the experimental part: as §1
A further assay relates to S. pneumoniae ATCC49619. Particulars: Streptococcus pneumoniae, cation adjusted Mueller-Hinton broth, 16-20 hours, read-out: MIC Values, C: S. pneumoniae ATCC49619. The protocol: as §1

≈ marks a conversion by molar mass, not a printed value.

Take `CC[C@H]1OC(=O)[C@H](C)C(=O)[C@H](C)[C@@H](O[C@@H]2O[C@H](C)C[C@H](N(C)C)[C@H]2O)[C@](C)(OC(=O)OC/C=C/c2ccc(Br)nc2)C[C@@H](C)C(=O)[C@H](C)[C@H]2NC(=S)O[C@@]21C` [Compound 10]: the MIC with E. faecalis ATCC29212 was 0.12 µg/mL (≈ 0.14 µM); against S. aureus ATCC29213, 0.25 µg/mL (≈ 0.292 µM); in the assay on H. influenzae ATCC49247, 2 µg/mL (≈ 2.34 µM); with S. pneumoniae ATCC49619, ≤ 0.015 µg/mL.
Regarding `CC[C@H]1OC(=O)[C@H](C)C(=O)[C@H](C)[C@@H](O[C@@H]2O[C@H](C)C[C@H](N(C)C)[C@H]2O)[C@](C)(OC(=O)NC/C(F)=C/c2cnc3ccccc3c2)C[C@@H](C)C(=O)[C@H](C)[C@H]2NC(=S)O[C@@]21C` [Compound 12], the MIC in the assay with E. faecalis ATCC29212 turned out to be 0.12 µg/mL (≈ 0.142 µM); against S. aureus ATCC29213, 0.5 µg/mL (≈ 0.593 µM); in the assay on H. influenzae ATCC49247 it was 1 µg/mL (≈ 1.19 µM); in the assay on S. pneumoniae ATCC49619 it was 0.03 µg/mL (≈ 0.0356 µM).
For `CC[C@H]1OC(=O)[C@H](C)C(=O)[C@H](C)[C@@H](O[C@@H]2O[C@H](C)C[C@H](N(C)C)[C@H]2O)[C@](C)(OC(=O)NC/C=C/c2ccc(-c3cccnn3)cc2)C[C@@H](C)C(=O)[C@H](C)[C@H]2NC(=S)O[C@@]21C` [Compound 4], in that order: 0.25 µg/mL (≈ 0.293 µM), 0.5 µg/mL (≈ 0.587 µM), 2 µg/mL (≈ 2.35 µM) and 0.12 µg/mL (≈ 0.141 µM).
In the case of `CC[C@H]1OC(=O)[C@H](C)C(=O)[C@H](C)[C@@H](O[C@@H]2O[C@H](C)C[C@H](N(C)C)[C@H]2O)[C@](C)(OC(=O)NC/C=C/c2cnc(C3CC3)nc2)C[C@@H](C)C(=O)[C@H](C)[C@H]2NC(=S)O[C@@]21C` [Compound 7], the MIC with E. faecalis ATCC29212 was 0.06 µg/mL (≈ 0.0735 µM); with S. aureus ATCC29213 it was 0.5 µg/mL (≈ 0.613 µM); with H. influenzae ATCC49247, 1 µg/mL (≈ 1.23 µM); in the assay on S. pneumoniae ATCC49619, ≤ 0.015 µg/mL.
Consider `CC[C@H]1OC(=O)[C@H](C)C(=O)[C@H](C)[C@@H](O[C@@H]2O[C@H](C)C[C@H](N(C)C)[C@H]2O)[C@](C)(OC(=O)NC/C=C/c2ccc(Br)nc2)C[C@@H](C)C(=O)[C@H](C)[C@H]2NC(=S)O[C@@]21C` [Compound 6], for which the MIC in the assay with E. faecalis ATCC29212 was 0.06 µg/mL (≈ 0.0703 µM); in the assay on S. aureus ATCC29213 it was 0.5 µg/mL (≈ 0.586 µM); with H. influenzae ATCC49247, 1 µg/mL (≈ 1.17 µM); with S. pneumoniae ATCC49619 it was ≤ 0.015 µg/mL.
For `CC[C@H]1OC(=O)[C@H](C)C(=O)[C@H](C)[C@@H](O[C@@H]2O[C@H](C)C[C@H](N(C)C)[C@H]2O)[C@](C)(OC(=O)NC/C=C/c2cnc3ccccc3c2)C[C@@H](C)C(=O)[C@H](C)[C@H]2NC(=S)O[C@@]21C` [Compound 5], the MIC in the assay on E. faecalis ATCC29212 is 0.06 µg/mL (≈ 0.0727 µM); against S. aureus ATCC29213, 0.25 µg/mL (≈ 0.303 µM); in the assay with H. influenzae ATCC49247 it was 1 µg/mL (≈ 1.21 µM); in the assay with S. pneumoniae ATCC49619 it was ≤ 0.015 µg/mL.
Regarding `CC[C@H]1OC(=O)[C@H](C)C(=O)[C@H](C)[C@@H](O[C@@H]2O[C@H](C)C[C@H](N(C)C)[C@H]2O)[C@](C)(OC(=O)OC/C=C/c2cnc3ccccc3c2)C[C@@H](C)C(=O)[C@H](C)[C@H]2NC(=S)O[C@@]21C` [Compound 9], the MIC in the assay on E. faecalis ATCC29212 worked out at 0.06 µg/mL (≈ 0.0726 µM); in the assay on S. aureus ATCC29213 it was 0.12 µg/mL (≈ 0.145 µM); in the assay with H. influenzae ATCC49247 it was 2 µg/mL (≈ 2.42 µM).
